Measurements reported in patent publication US9650369B2, “Anti-migration and anti-invasion thiazole analogs for treatment of cellular proliferative disease” (XAVIER UNIVERSITY OF LOUISIANA, priority 2012, dated 2017).

Legend:
[1] = test system: MDA-MB-231 breast cancer cells; assay: transwell migration assay, MDA-MB-231; format: cell-based; conditions: Homo sapiens; for inhibition at 10 µM: MDA-MB-231, MDA-MB-231, 10 μM, read-out: inhibition of cell migration; for IC50: transwell migration of MDA-MB-231 cells, read-out: IC50 (anti-migration)
Procedure: (§1) To determine if these analogs have anti-migration and anti-invasion activities in different cancer cell lines, transwell migration assays were performed using MDA-MB-231 breast cancer cells (FIG. 3) and HeLa cells (FIG. 5) for all synthetic analogs. […] Next, clonogenic assays were performed on the breast cancer cells treated with the compounds to rule out any indirect effect on cell migration due to cytotoxicity (FIG. 4). MDA-MB-231 cells were allowed to grow for 14 days in six-well plates in the presence or absence of the synthetic compounds at 10 μM.
To determine the effects of the synthesized mackroketone analogs on cancer cell migration, we performed transwell migration assay on each compound using an invasive and metastatic breast cancer cell line, MDA-MB-231. When cells were seeded at a density of 2.5×10^4 in media free of serum in the upper chamber but containing 5% FBS in the lower chamber, their ability to migrate in the presence and absence of 10 μM analogs were measured by counting the total number of cells in the lower chamber after 24 hrs.

[2] = test system: MDA-MB-231 breast cancer cells; assay: clonogenic assay (colony formation), MDA-MB-231; format: cell-based; conditions: for activity at 10 µM: read-out: Effect on cell proliferation (colony formation) (% of vehicle control)
Procedure: as §1
To rule out any indirect effect on cell migration due to cytotoxicity, clonogenic assays were performed on the breast cancer cells treated with the compounds. MDA-MB-231 cells were allowed to grow for 14 days in six-well plates in the presence or absence of the synthetic compounds at 10 μM. […] For example, analog 3g blocked both cell migration (81.4%) and colony formation (42.7%). For these analogs cytotoxity may have partially contributed to their overall anti-migration effect. The cell toxicity data for all analogs are listed in Table 1 along with anti-migration data for comparison.

[3] = Homo sapiens, 336 h, MDA-MB-231, 10 μM analogs, 14 days

Row | Compound | activity at 10 µM [2, 3] [%] | also measured
1 | Cc1ccc(-c2csc(N)n2)c(C)c1 [Compound 2b, 2-Amino-4-(2,4-dimethylphenyl)thiazole] | 111 | inhibition at 10 µM [1]: > 50%; cytotoxicity (in words) ([2]; MDA-MB-231, 10 μM, two weeks): no apparent cell toxicity
2 | O=C(Nc1nc(-c2ccccc2)cs1)c1cccs1 [Compound 3a, N-(4-Phenylthiazol-2-yl)thiophene-2-carboxamide] | 85.9 | IC50 [1]: 2490 nM
3 | COc1ccc(C(=O)Nc2nc(-c3ccccc3)cs2)cc1OC [Compound 3g, 3,4-Dimethoxy-N-(4-phenylthiazol-2-yl)benzamide] | 57.3 | inhibition at 10 µM [1]: > 80%; inhibition at 10 µM ([2]; Homo sapiens, 336 h, MDA-MB-231, 10 μM, two weeks): 42.7%
4 | O=C(Nc1nc(-c2ccccc2)cs1)c1ccncc1 [Compound 3i, N-(4-Phenylthiazol-2-yl)isonicotinamide] | 95.5 | IC50 [1]: 2870 nM
5 | O=C(Nc1nc(-c2ccccc2)cs1)c1ccccc1 [Compound 3j, N-(4-Phenylthiazol-2-yl)benzamide] | 105 | IC50 [1]: 1290 nM
6 | Cc1ccc(-c2csc(NC(=O)c3ccccc3)n2)c(C)c1 [Compound 3o, N-(4-(2,4-dimethylphenyl)thiazol-2-yl)benzamide] | 85 | IC50 [1]: 839 nM
7 | Cc1ccc(-c2csc(N(C)C(=O)c3cccs3)n2)c(C)c1 [Compound 4b, N-(4-(2,4-dimethylphenyl)thiazol-2-yl)-N-methylthiophene-2-carboxamide] | 97.7 | 
8 | COc1ccc(C(=O)N(C)c2nc(-c3ccccc3)cs2)cc1OC [Compound 4c, 3,4-Dimethoxy-N-methyl-N-(4-phenylthiazol-2-yl)benzamide] | 97.1 | 
9 | CCN(C(=O)c1ccco1)c1nc(-c2ccccc2)cs1 [Compound 4d, N-Ethyl-N-(4-phenylthiazol-2-yl)furan-2-carboxamide] | 96.5 | 
10 | CN(C(=O)C1CCCC1)c1nc(-c2ccccc2)cs1 [Compound 4f, N-Methyl-N-(4-phenylthiazol-2-yl)cyclopentanecarboxamide] | 132 | 
11 | CN(C(=O)C1CCCCC1)c1nc(-c2ccccc2)cs1 [Compound 4g, N-Methyl-N-(4-phenylthiazol-2-yl)cyclohexanecarboxamide] | 97.5 | 
12 | CCCCCC(=O)N(C)c1nc(-c2ccccc2)cs1 [Compound 4h, N-Methyl-N-(4-phenylthiazol-2-yl)hexanamide] | 128 | 
13 | CCCCCCCCCCCC(=O)N(C)c1nc(-c2ccccc2)cs1 [Compound 4i, N-Methyl-N-(4-phenylthiazol-2-yl)dodecanamide] | 111 | 
14 | Cn1c(-c2ccccc2)cs/c1=N/C(=O)c1cccs1 [Compound 5a, N-(3-Methyl-4-phenylthiazol-2(3H)-yliene)thiophene-2-carboxamide] | 85 | 
15 | Cn1c(-c2ccccc2)cs/c1=N/C(=O)c1ccco1 [Compound 5b, N-(3-Methyl-4-phenylthiazol-2(3H)-yliene)furan-2-carboxamide] | 107 | 
16 | Cn1c(-c2ccccc2)cs/c1=N/C(=O)c1ccc(Br)cc1 [Compound 5d, 4-Bromo-N-(3-methyl-4-phenylthiazol-2(3H)-yliene)benzamide] | 63.8 | 
17 | COc1cc(C(=O)/N=c2/scc(-c3ccccc3)n2C)cc(OC)c1OC [Compound 5e, 3,4,5-Trimethoxy-N-(3-methyl-4-phenylthiazol-2(3H)-yliene)benzamide] | 75.4 | 
18 | Cc1ccc(-c2cs/c(=N/C(=O)c3cccs3)n2C)c(C)c1 [Compound 5f, N-(4-(2,4-dimethylphenyl)-3-methylthiazol-2(3H)-yliene)thiophene-2-carboxamide] | 102 | 
19 | COc1ccc(C(=O)N=c2scc(-c3ccccc3)n2C)cc1OC [Compound 5g, 3,4-Dimethoxy-N-(3-methyl-4-phenylthiazol-2(3H)-yliene)benzamide] |  | Effect on cell proliferation (colony formation) (% of vehicle control) ([2]; MDA-MB-231, 10 μM analogs, 14 days): 40.9%
20 | Cn1c(-c2ccccc2)cs/c1=N/C(=O)c1cccnc1 [Compound 5h, N-(3-Methyl-4-phenylthiazol-2(3H)-yliene)nicotinamide] | 112 | 
